{
  "source": "patent US20230338347A1",
  "about": "“New Use of Inhibitors of the Notch Signalling Pathway” (Cellestia Biotech AG, priority 2020, published 2023)",
  "assay_type_in_all_cases": "in vivo, human",
  "key": {"[1]": {"test_system": "Notch-activated relapsed and treatment refractory T-ALL", "assay": "Compassionate use in a NOTCH positive relapsed refractory T-ALL patient: clinical response", "details": "free base once daily 300 to 400 to 500 mg", "protocol": "In a compassionate use program, a patient with Notch-activated relapsed and treatment refractory T-ALL was treated with 6-(4-Tert-Butylphenoxy)Pyridin-3-Amine (free base) once daily starting with 300 mg, increased to 400 mg, then 500 mg in addition to their ongoing anti-cancer treatment. Dose escalation was done every 3 days to reach the target dose 500 mg."}, "[2]": {"assay": "Phase I/IIA study: pharmacokinetics after oral administration", "excerpt": "This […] study is an ongoing first-in-human, open-label study investigating the safety, tolerability, pharmacokinetics (PK), pharmacodynamics (PD) and preliminary efficacy of the pan-NOTCH inhibitor 6-(4-Tert-Butylphenoxy)Pyridin-3-Amine in adult patients with locally advanced or metastatic solid tumours or hematologic malignancies.\nThe study is designed as an open label, non-randomised, uncontrolled […] dose escalation study with expansion cohorts of 6-(4-Tert-Butylphenoxy)Pyridin-3-Amine administered orally on a once-daily schedule, based on a 28-day treatment cycle. The dosing will be 15, 30, 60, 120, 170, 250, 400, or 600 mg of the 6-(4-Tert-Butylphenoxy)Pyridin-3-Amine monohydrochloride salt or higher per day or alternatively 20, 40, 60, 120, 170, 250, 400, or 600 mg of the 6-(4-Tert-Butylphenoxy)Pyridin-3-Amine monohydrochloride salt or higher per day. Dosing of 15, 30, 60, 120, 170, 250, 400, or 600 mg of the 6-(4-Tert-Butylphenoxy)Pyridin-3-Amine monohydrochloride salt corresponds to dosing of 13, 26, 52, 104, 148, 217, 348, or 522 mg of 6-(4-Tert-Butylphenoxy)Pyridin-3-Amine (free base). Dosing of 20, 40, 60, 120, 170, 250, 400, or 600 mg of the 6-(4-Tert-Butylphenoxy)Pyridin-3-Amine monohydrochloride salt corresponds to dosing of 17, 35, 52, 104, 148, 217, 348, or 522 mg of 6-(4-Tert-Butylphenoxy)Pyridin-3-Amine (free base). For this study, 6-(4-Tert-Butylphenoxy)Pyridin-3-Amine monohydrochloride salt was formulated into a capsule having a drug load of 5, 10, 20, 50 and 100 mg, respectively intended to be administered orally. • Patients will meet the following criteria:\n6-(4-Tert-Butylphenoxy)Pyridin-3-Amine is rapidly absorbed after oral administration and reaches Cmax within 1 to 2 hours of dosing. […] The elimination half-life is approximately 20 hours and 6-(4-Tert-Butylphenoxy)Pyridin-3-Amine accumulates about 2-fold with repeated daily administration."}, "NOTCH target genes": {"test_system": "NOTCH target genes", "assay": "NOTCH target gene expression in hair follicles of Phase 1 patients (Nanostring)", "details": "several NOTCH target genes, starting at Cycle 2 day 1", "excerpt": "Hair follicles were obtained at pre-defined time points to measure changes in NOTCH target genes expression by 6-(4-Tert-Butylphenoxy)Pyridin-3-Amine treatment. NOTCH target gene down-regulation in hair follicles has been reported to be a robust and indicative biomarker that correlates with both clinical efficacy and the incidence of DLTs (Tanis K Q, et al. Clin Pharmacol Ther 2016; 99(4):370-80; Cook N, et al. BJC 2018; 118(6):793-801).\nBetween 5 to 10 hairs were plucked to extract the complete and undamaged hairbulb (full hair follicle), and processed as described in Camidge D R, et al. Br J Cancer 2005; 92:1837-41 and Bradley B J, et al. Mol EcolNotes 2005; 5:961-4. RNA concentration was measured by Qubit (RNAHighSensitivity), and RNA integrity was evaluated on a RNA 6000 Pico chip. RNA samples were tested for gene expression profiling on a Nanostring platform.\nTable 1: NOTCH target down regulation in hair follicles and blood cells from Phase 1 patients. Target gene down regulation (CCND3, cyclin-D3; HES1, Hairy and enhance of split-1; HES4, Hairy and enhance of split-4; HESS, Hairy and enhance of split-5; HEY1, hes related family bHLH transcription factor with YRPW motif1; HEY2; hes related family bHLH transcription factor with YRPW motif 2; HEYL, hes-related family bHLH transcription factor with YRPW motif-like; IL7R-α, Interleukin-7 receptor subunit alpha; NOTCH1; NOTCH2; NRARP (NOTCH Regulated Ankyrin Repeat Protein): […]"}},
  "data": [
    {"smiles": "CC(C)(C)c1ccc(Oc2ccc(N)cn2)cc1", "note": "[6-(4-Tert-Butylphenoxy)Pyridin-3-Amine]", "values": [
      {"measurement": "time to complete remission after starting dosing", "setting": "[1]", "value": "≤ 1", "unit": "week"},
      {"measurement": "clinical response", "setting": "[1]; added to ongoing anti-cancer treatment", "value": "complete remission"},
      {"measurement": "time to steady state concentrations", "setting": "[2]; daily dosing", "value": "within one week"},
      {"measurement": "Tmax", "setting": "[2]; human, plasma, after oral administration, read-out: time to reach Cmax", "value": "1 to 2", "unit": "h"},
      {"measurement": "half-life", "setting": "[2]; human, plasma, oral, read-out: elimination half-life (converted)", "value": "~20", "unit": "h"},
      {"measurement": "accumulation with repeated daily administration", "setting": "[2]; oral, daily", "value": "about 2 fold"},
      {"measurement": "plasma exposure versus dose", "setting": "[2]; oral, dose range tested", "value": "increases with increasing doses"},
      {"measurement": "saturation of absorption", "setting": "[2]; oral, dose range tested", "value": "no signs of saturated absorption"},
      {"measurement": "average NOTCH target gene downregulation compared to baseline (inhibition)", "setting": "NOTCH target genes", "value": "higher than 90%"}
    ]}
  ]
}
